Assays:
HRF [1] = experiment: Phage clone ELISA for binding to immobilized HRF
Description: Particularly, HRF was dissolved in a coating buffer (0.1 M NaHCO 3, pH 8.6) at the concentration of 20 μg/ml, which was loaded in a polystyrene microtiter plate (50 ? /well), followed by coating at 4° C. for overnight and blocking non-specific binding with BSA. The plate was washed with 0.1% Tween/TBS (TBST) 6 times. […] The plate stood at room temperature for 1 hour. TBST was added thereto, and the plate stood for 5 minutes, followed by washing. The washing was performed once after one round of panning, 5 times after 2 and 3 rounds of panning, and 10 times after 4 rounds of panning. 50 ? of glycine/HCl buffer (pH 2.2) was added thereto, which stood for 5 minutes. Then, phages were eluted, and then neutralization was induced with 8 ? of 1 M Tris-HCl (pH 9.1). The eluted phage solution was added to 20 ? of ER2537 culture medium (OD600=0.5˜1), followed by culture in a 37° C. shaking incubator (rpm=200) for 2 hours. 100 ? of SB medium was added thereto, followed by culture for overnight with shaking (250 rpm). The culture solution was centrifuged at 10,000 rpm (4° C.) for 15 minutes. 100 ? of the obtained supernatant was added with 30 ? of 5×PEG/NaCl (20% PEG(w/v), 15% NaCl (w/v)), followed by dissolving for 5 minutes. The mixture was then left in ice for 30 minutes. The mixture was centrifuged at 10,000 rpm (4° C.) for 20 minutes and the supernatant was discarded. The obtained pellet was suspended in 1 ? of 3% BSA/TBS. After performing centrifugation at 14,000 rpm for 5 minutes, the supernatant was obtained and used for panning. Affinity purification and phage replication were repeated 4 times, followed by eluting phages. Each phage clone was obtained from the proper plate of the eluted phage, followed by ELISA. Those phage clones showing a specific affinity to HRF were separated, followed by sequencing to confirm the peptide sequence. Those phage display peptides showing dominant binding to HRF were selected and listed below:
That is, each phage plaque was added to 1 ? of the ER2537 culture medium (OD600=0.5˜1) cultured in SB medium, followed by culture in a 37° C. incubator (rpm=250) for 5 hours. 100 ? of each culture solution was added to 900 ? of SB medium, followed by culture for overnight. […]
Each phage solution separated above was diluted in an equal volume of 6% BSA/PBS, and 50 ? of the diluted solution was added to each well of the plastic well plate coated with HRF or BSA (control), which stood for 2 hours. […] After adding peroxidase substrate solution thereto (100 ? /well), OD405 was measured with an ELISA reader.
HRF was diluted serially by ⅕ fold each from the concentration of 20 μg/ ? […] The phage 2 solution diluted serially by ⅕ fold each (½, 1/10, 1/50, 1/250, and 1/1250 of the stock solution) was added thereto, followed by ELISA and OD405 was measured.

CIA mouse model = experiment: Treatment effect of dTBP2 in CIA mouse model; assay type: in vivo, DBA1/j mice
HRF [2] = experiment: HRF binding affinity of heptamer peptides by ELISA (alanine scan of p2); details: p2 and its substituted heptamers m1-m7
Source text: In order to confirm the residues involved in the HRF binding affinity of the heptamer peptide of the present invention, the amino acid sequence of p2 was substituted with alanine (A), and only m5 was substituted with lysine (K). As a result, the following sequences were established: […]

[3] = tested on: CIA (collagen-induced arthritis) mouse model; experiment: Preventive effect of dTBP2 in CIA (collagen-induced arthritis) mouse model; assay type: in vivo, male DBA1/j mice; details: for joint thickness: preventive
[4] = tested on: atopic dermatitis mouse model; experiment: Effect of dTBP2 in atopic dermatitis mouse model (Biostir AD); assay type: in vivo, female NC/Nga mice
Description: Particularly, 5 week old specific pathogen free female NC/Nga mice were purchased from Orientbio Inc. (Seoul, Korea), which were adapted for 1 week. After depilating with a hair removal agent, Biostir® AD ointment (Biostir, Japan) was used to induce atopic dermatitis on the dorsal skin. That is, hair was removed from the back of the mouse, on which 150 μl of 4% SDS dissolved in PBS was applied. After 2-3 hours of natural dry, 100 mg of Biostir® AD cream was evenly applied on the back skin and the ear skin of the mouse. The cream was applied twice a week, 6 times total for 3 weeks. It was confirmed that the skin layer of the mouse became thick and keratin was formed on the back skin.
To investigate the effect of dTBP2 on atopic dermatitis in the atopic dermatitis-induced mouse, the positive control was administered with PBS, the comparative experimental group was administered with protopic ointment (Astellas Pharma Manufacturing Inc., USA), and the experimental group was treated with dTPB2. On day 0, PBS (subcutaneous injection, 25 mg/kg), protopic ointment (skin application, 100 mg/mouse) and dTBP2 (subcutaneous injection, 25 mg/kg) were respectively applied. On day 1, 100 mg of Biostir® AD cream was applied thereto. On day 2 and day 3, PBS, protopic ointment, and dTBP2 were treated thereto by the same manner as performed on day 0. On day 4, 100 mg of Biostir® AD cream was applied thereto. On day 5, PBS, protopic ointment, and dTBP2 were treated thereto by the same manner as performed on day 0.
Atopic symptoms were observed and presented as points according to the atopic index such as erythema, drying, excoriation, edema, and erosion, based on which a graph was made (FIG. 32b, 0: no symptoms, 1: weak symptoms, 2: median symptoms, 3: severe symptoms). It was confirmed on the graph that atopy was minor in the group treated with protopic ointment and dTBP2, compared with the control.
Once atopic allergy is induced, the stratum corneum and skin layer become thick and the infiltration of inflammatory cells is increased. For the histological evaluation, hematoxylin/eosin staining and toluidine blue staining were performed. The thickness of the skin and the infiltration of immune related inflammatory cells were observed under microscope. As a result, the atopic symptoms including the thick stratum corneum were improved in the groups treated with protopic ointment and dTBP2, compared with the control group treated with PBS alone (FIGS. 34a and 34b).
Lymph node assay examining the effect of an antigen or a drug by observing the changes of lymph node weight was performed to investigate inflammatory reaction induced by skin sensitizing materials.

[5] = dTBP2 25 mg/kg s.c., protopic ointment 100 mg/mouse, vs PBS

binding force to serially diluted HRF (ELISA, OD405) (HRF [1]; HRF diluted until 0.4, 0.08, 0.016, and 0.032 μg/ml, phage solution serially diluted): maintained its binding force to HRF
binding of phage clone to HRF (ELISA, OD405) (HRF [1]; wells coated with HRF or BSA (control)): specifically bind to HRF
HRF binding affinity (rank order) (HRF [2]): p2, m6>m7>m3>m2>fm5>M1>m4
Substance: WYVYPSM (IgE-dependent histamine-releasing factor binding peptide2) [dTBP2, ID; NO: 24]
joint thickness (CIA mouse model; 5 mg of dTBP2 from day 41): continuously increased
joint thickness (CIA mouse model; 25 mg of dTBP2 from day 41): reduced
arthritis clinical score (CIA mouse model; 25 mg of dTBP2 from day 41, vs vehicle alone or 5 mg): getting lower
joint thickness ([3]; 5 mg of dTBP2): continuously increased until day 41 and rapidly increased from day 41 to day 46
development of rheumatoid arthritis ([3]; 25 mg of dTBP2, three times a week, vs vehicle alone or 5 mg): inhibited more significantly
joint thickness ([3]; 25 mg of dTBP2): almost as same as that of the normal until day 46
inhibition of incidence rate ([3]; day 31, 25 mg of dTBP2, vs vehicle alone or 5 mg): at least 50%
inhibition of incidence rate ([3]; day 46, 25 mg of dTBP2, vs vehicle alone or 5 mg): at least 70%
IL-4 mRNA level [4, 5]: significantly decreased
IL-13 mRNA level [4, 5]: significantly decreased
atopic symptoms including thick stratum corneum (H&E, skin thickness) [4, 5]: improved
histamine level [4, 5]: lower
level of Th17A [4, 5]: lowered
lymph node weight and size (lymph node assay) [4, 5]: smaller in both weight and size than that of the PBS treated group
infiltration of mast cells (toluidine blue) ([4]; dTBP2 25 mg/kg s.c., protopic ointment 100 mg/mouse, vs positive control): significantly reduced
atopic symptoms as points (atopic index: erythema, drying, excoriation, edema, erosion) ([4]; dTBP2 subcutaneous 25 mg/kg, protopic ointment 100 mg/mouse, vs control): minor
degree of atopy, visually confirmed ([4]; dTBP2 subcutaneous 25 mg/kg, protopic ointment skin application 100 mg/mouse, vs control): lesser degree of atopy than the control group

Reference: patent US11518805B2, “Binding inhibitor between TCTP dimer type IgE-dependent histamine releasing factor and receptor thereof, and use thereof” (EWHA UNIVERSITY—INDUSTRY COLLABORATION FOUNDATION, priority 2014, dated 2022)
